In BindingDB's records for doi:10.1021/bi00118a023 (University of Akron, 1992):

molecular target: T1, Bifunctional aspartokinase/homoserine dehydrogenase 1 (Escherichia coli (strain K12), UniProt P00561); assay: Inhibition Assay
T1 sequence (P00561 whole entry): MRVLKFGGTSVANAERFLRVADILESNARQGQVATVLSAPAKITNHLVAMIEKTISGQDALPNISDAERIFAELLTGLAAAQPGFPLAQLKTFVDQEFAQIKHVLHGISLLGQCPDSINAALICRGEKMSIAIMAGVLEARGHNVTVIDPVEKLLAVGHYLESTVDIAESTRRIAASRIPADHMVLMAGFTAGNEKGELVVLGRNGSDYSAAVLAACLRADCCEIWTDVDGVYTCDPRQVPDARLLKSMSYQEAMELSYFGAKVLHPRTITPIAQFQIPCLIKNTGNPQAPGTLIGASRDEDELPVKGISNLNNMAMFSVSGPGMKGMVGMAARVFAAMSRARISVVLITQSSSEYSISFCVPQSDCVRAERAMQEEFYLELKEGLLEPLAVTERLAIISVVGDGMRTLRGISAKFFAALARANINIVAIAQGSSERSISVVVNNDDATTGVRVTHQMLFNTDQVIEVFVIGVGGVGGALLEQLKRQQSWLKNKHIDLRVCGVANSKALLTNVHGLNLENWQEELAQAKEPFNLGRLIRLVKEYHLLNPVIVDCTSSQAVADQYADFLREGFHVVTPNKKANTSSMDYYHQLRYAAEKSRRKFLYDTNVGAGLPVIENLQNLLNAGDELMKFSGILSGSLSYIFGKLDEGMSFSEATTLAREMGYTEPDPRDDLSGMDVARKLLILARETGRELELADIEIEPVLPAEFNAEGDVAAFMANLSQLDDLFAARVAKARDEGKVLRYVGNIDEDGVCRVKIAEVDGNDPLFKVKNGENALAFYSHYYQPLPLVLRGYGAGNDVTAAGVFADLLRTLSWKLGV
From the text: Analogues of L-aspartic acid and beta-aspartyl phosphate were examined as inhibitors in the aspartokinase I reaction by using the coupled reaction with ASA-DH.

Ki | Structure (SMILES)
45 mM | NC(CC(=O)O)CC(=O)O [3-Aminoglutarate]
39 mM | NC(=O)C[C@@H](N)C(=O)O [D-asparagine]
11 mM | N[C@@H](CC(=O)O)C(=O)OCc1ccccc1 [D-aspartate alpha-benzyl ester]
16 mM | N[C@@H](CC(=O)NO)C(=O)O [D-aspartate-beta-hydroxamate]
71 mM | COC(=O)C[C@H](N)C(=O)OC [L-Aspartic dimethyl ester]
38 mM | N[C@@H](CCC(=O)O)C(=O)O [L-Glutamic acid]
24 mM | COC(=O)CC[C@H](N)C(=O)O [L-glutamate gamma-methyl ester]

Continued, compound first:

Structure (SMILES) | Ki
NCC(O)C(=O)O (racemic) [DL-Isoserine] | 30 mM
NCC[C@H](N)C(=O)O [2,4-Diaminobutanoate] | 10 mM
CCC(N)C(=O)O (stereo not given) [2-Aminobutyrate] | 5 mM
NC(C(=O)O)C(=O)O [Aminomalonate] | 23 mM
NC(CCCP(=O)(O)O)C(=O)O (stereo not drawn) [DL-2-Amino-5-phosphonovalerate] | 8.4 mM
NC(CCP(=O)(O)O)C(=O)O (stereo not drawn) [DL-2-amino-4-phosphonobutyrate] | 61 mM
N[C@@H](CCOP(=O)(O)O)C(=O)O [Homoserine phosphate] | 6 mM
N[C@@H](CN(O)N=O)C(=O)O [L-Alanosine] | 7.5 mM
CCC[C@H](N)C(=O)O [L-Norvaline] | 3.1 mM
CC(C)[C@H](N)C(=O)O [L-Valine] | 32 mM
C[C@H](N)C(=O)O [L-alanine] | 99 mM
CCCC[C@H](N)C(=O)O [L-norleucine] | 24 mM
N[C@@H](COP(=O)(O)O)C(=O)O [O-phospho-L-serine] | 12 mM
